Results on 5 compounds are retold here after paper PMC6640638 (Journal of the American Chemical Society, 2016).

Common to all, as to experiment: adenylation: pyrophosphate exchange or coupled pyrophosphate release assay
Holding throughout (type): biochemical
Conditions in all cases: adenylation step; ATP

The target of assay [1] is phenylalanyl-tRNA synthetase (PheRS, class IIC) (Escherichia coli, UniProt P08312).
The target of assay [2] is T1, glycyl-tRNA synthetase (GlyRS, class IIC) (Escherichia coli, UniProt P00960).
T1 sequence (P00960 1-303): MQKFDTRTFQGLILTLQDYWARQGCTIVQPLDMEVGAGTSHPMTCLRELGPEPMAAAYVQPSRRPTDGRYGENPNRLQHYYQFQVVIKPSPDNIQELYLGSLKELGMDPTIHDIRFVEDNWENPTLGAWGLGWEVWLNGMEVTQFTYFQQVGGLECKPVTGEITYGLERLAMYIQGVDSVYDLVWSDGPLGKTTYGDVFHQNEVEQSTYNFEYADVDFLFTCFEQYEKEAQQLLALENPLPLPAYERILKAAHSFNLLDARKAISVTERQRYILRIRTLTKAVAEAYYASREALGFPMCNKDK
T1 sequence (P00961 2-689 partner): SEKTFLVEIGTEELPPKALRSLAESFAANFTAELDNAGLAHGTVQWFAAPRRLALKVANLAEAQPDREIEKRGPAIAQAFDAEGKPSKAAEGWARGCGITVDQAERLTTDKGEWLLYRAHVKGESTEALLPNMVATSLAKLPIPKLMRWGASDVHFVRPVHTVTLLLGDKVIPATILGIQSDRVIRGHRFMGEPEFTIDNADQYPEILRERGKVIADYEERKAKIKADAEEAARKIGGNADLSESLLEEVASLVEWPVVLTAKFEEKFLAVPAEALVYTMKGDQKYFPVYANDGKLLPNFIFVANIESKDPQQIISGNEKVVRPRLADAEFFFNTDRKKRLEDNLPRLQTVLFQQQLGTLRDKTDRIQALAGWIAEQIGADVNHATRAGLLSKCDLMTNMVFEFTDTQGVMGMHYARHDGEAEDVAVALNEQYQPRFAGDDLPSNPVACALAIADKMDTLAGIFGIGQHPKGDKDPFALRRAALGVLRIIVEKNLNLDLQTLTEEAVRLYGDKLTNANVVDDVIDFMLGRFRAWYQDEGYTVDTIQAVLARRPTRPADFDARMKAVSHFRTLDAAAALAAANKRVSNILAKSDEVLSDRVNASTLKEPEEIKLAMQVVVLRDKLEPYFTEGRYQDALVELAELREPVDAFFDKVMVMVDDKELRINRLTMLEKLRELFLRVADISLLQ

Assay [3] deals with T2, tyrosyl-tRNA synthetase (TyrRS, class IC) (Escherichia coli, UniProt P0AGJ9).
T2 sequence (P0AGJ9 2-424): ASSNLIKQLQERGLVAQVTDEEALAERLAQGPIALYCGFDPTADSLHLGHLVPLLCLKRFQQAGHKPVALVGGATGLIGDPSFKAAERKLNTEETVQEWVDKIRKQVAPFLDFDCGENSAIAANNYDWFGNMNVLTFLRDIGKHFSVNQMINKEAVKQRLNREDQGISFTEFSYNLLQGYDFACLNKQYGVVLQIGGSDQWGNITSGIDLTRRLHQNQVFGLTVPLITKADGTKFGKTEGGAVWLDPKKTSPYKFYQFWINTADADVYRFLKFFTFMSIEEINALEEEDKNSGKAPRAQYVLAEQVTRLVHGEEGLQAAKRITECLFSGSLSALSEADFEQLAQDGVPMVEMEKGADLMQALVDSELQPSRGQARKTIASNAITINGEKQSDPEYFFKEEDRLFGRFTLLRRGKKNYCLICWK

Chain of phenylalanyl-tRNA synthetase (PheRS, class IIC) (P08312 whole entry): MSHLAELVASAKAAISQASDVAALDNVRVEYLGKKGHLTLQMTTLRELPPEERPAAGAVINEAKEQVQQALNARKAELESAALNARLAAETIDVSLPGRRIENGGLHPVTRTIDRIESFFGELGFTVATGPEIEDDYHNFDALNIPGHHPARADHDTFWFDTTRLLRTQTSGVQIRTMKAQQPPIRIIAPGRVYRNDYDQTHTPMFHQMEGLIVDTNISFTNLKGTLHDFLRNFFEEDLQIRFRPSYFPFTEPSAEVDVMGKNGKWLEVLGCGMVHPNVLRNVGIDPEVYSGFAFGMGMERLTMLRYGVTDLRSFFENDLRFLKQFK
Chain of phenylalanyl-tRNA synthetase (PheRS, class IIC) (P07395 whole entry partner): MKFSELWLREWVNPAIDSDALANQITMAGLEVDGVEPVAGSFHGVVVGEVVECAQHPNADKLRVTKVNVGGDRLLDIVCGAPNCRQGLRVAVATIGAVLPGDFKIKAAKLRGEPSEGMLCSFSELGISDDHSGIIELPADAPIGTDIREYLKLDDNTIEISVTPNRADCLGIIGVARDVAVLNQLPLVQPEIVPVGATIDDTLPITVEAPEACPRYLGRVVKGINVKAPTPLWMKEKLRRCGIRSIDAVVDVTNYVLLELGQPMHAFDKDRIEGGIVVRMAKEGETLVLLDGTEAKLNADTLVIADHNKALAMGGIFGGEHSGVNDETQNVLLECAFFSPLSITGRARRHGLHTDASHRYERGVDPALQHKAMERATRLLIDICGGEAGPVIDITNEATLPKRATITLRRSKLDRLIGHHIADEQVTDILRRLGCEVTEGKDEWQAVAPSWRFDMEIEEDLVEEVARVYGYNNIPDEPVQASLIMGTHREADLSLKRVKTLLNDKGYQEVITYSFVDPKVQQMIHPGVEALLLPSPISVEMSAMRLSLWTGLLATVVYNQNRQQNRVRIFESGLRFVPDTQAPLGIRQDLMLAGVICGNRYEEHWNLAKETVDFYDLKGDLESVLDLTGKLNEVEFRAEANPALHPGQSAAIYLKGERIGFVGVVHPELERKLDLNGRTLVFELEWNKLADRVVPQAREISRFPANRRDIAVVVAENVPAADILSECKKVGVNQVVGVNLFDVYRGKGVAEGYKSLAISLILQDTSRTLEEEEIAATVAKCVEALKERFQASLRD

Take `N[C@@H](Cc1ccccc1)C(=O)O` [α-Phe]: in assay [1], the KM entry was “GlyRS and PheRS (class II) tolerate the expanded β^3-amino acid backbone”.
In the case of `NCC(=O)O` [α-Gly], in assay [2], the KM result is “GlyRS and PheRS (class II) tolerate the expanded β^3-amino acid backbone”.
On to `NCCC(=O)O` [β^3-Gly], for which, in assay [2], the KM result was “GlyRS and PheRS (class II) tolerate the expanded β^3-amino acid backbone”.
With `NC(CC(=O)O)Cc1ccccc1` (stereo not drawn) [β^3-Phe], in assay [1], the KM result was “GlyRS and PheRS (class II) tolerate the expanded β^3-amino acid backbone”.
Consider `N[C@@H](Cc1ccc(O)cc1)C(=O)O` [α-Tyr], for which, in assay [3], the KM result is “GluRS and TyrRS (both class I) show the greatest selection against β^3-amino acid substrates”.
